Read-outs that look alike come from different tables or passages of the source.
System: SARS-CoV-2
Test: microbe, parasite or virus in culture
Type: cell-based
Settings: read-out: EC50, μM (Hela)
[1] = Severe acute respiratory syndrome coronavirus 2, HeLa-ACE2 cells infected with SARS-CoV-2, 24 h, immunofluorescence of infected cells

CC1(C)[C@@H]2[C@@H](C(=O)N[C@H](C#N)C[C@@H]3CCCNC3=O)N(C(=O)[C@@H](NC(=O)C(F)(F)F)C3CCOCC3)C[C@@H]21 [Compound 68, (1R,2S,5S)-N-((S)-1-cyano-2-((S)-2-oxopiperidin-3-yl)ethyl)-6,6-dimethyl-3-((S)-2-(tetrahydro-2H-pyran-4-yl)-2-(2,2,2-trifluoroacetamido)acetyl)-3-azabicyclo[3.1.0]hexane-2-carboxamide]
EC50 (Severe acute respiratory syndrome coronavirus 2, HeLa-ACE2, 24 h): > 1 µM

CC(C)(C)C[C@H](NC(=O)C(=O)Nc1ccccc1F)C(=O)N[C@@H](C[C@@H]1CCCNC1=O)C(=O)CO [Compound 87, N^1-(2-fluorophenyl)-N^2-((S)-1-(((S)-4-hydroxy-3-oxo-1-((S)-2-oxopiperidin-3-yl)butan-2-yl)amino)-4,4-dimethyl-1-oxopentan-2-yl)oxalamide]
EC50 [1]: < 0.05 µM

Cc1ccccc1NC(=O)C(=O)N[C@@H](CC1CC1)C(=O)N[C@@H](C[C@@H]1CCCNC1=O)C(=O)CO [Compound 88, N^1-((S)-3-cyclopropyl-1-(((S)-4-hydroxy-3-oxo-1-((S)-2-oxopiperidin-3-yl)butan-2-yl)amino)-1-oxopropan-2-yl)-N^2-(o-tolyl)oxalamide]
EC50 [1]: < 0.05 µM

CC(C)(C)C[C@H](NC(=O)C(=O)NC(C)(C)C)C(=O)N[C@@H](C[C@@H]1CCCNC1=O)C(=O)CO [Compound 89, N^1-(tert-butyl)-N^2-((S)-1-(((S)-4-hydroxy-3-oxo-1-((S)-2-oxopiperidin-3-yl)butan-2-yl)amino)-4,4-dimethyl-1-oxopentan-2-yl)oxalamide]
EC50 [1]: 0.05 to 0.2 µM

O=C(Nc1ccccc1F)C(=O)N[C@@H](CC1CC1)C(=O)N[C@@H](C[C@@H]1CCCNC1=O)C(=O)CO [Compound 90, N^1-((S)-3-cyclopropyl-1-(((S)-4-hydroxy-3-oxo-1-((S)-2-oxopiperidin-3-yl)butan-2-yl)amino)-1-oxopropan-2-yl)-N^2-(2-fluorophenyl)oxalamide]
EC50 [1]: < 0.05 µM

Cc1ccccc1NC(=O)C(=O)N1C[C@@H]2CCC[C@@H]2[C@H]1C(=O)N[C@@H](C[C@@H]1CCCNC1=O)C(=O)CO [Compound 91, (1S,3aR,6aS)-N-((S)-4-hydroxy-3-oxo-1-((S)-2-oxopiperidin-3-yl)butan-2-yl)-2-(2-oxo-2-(o-tolylamino)acetyl)octahydrocyclopenta [c]pyrrole-1-carboxamide]
EC50 [1]: 0.05 to 0.2 µM

Cc1ccccc1NC(=O)C(=O)N1C[C@@H]2CCC[C@@H]2[C@H]1C(=O)N[C@H](C[C@@H]1CCCNC1=O)C(=O)CO [Compound 92, (1S,3aR,6aS)-N-((R)-4-hydroxy-3-oxo-1-((S)-2-oxopiperidin-3-yl)butan-2-yl)-2-(2-oxo-2-(o-tolylamino)acetyl)octahydrocyclopenta [c]pyrrole-1-carboxamide]
EC50 [1]: > 1 µM

O=C(Nc1ccccc1F)C(=O)N1CC2(CC2)C[C@H]1C(=O)N[C@@H](C[C@@H]1CCNC1=O)C(=O)CO [Compound 93, (S)-5-(2-((2-fluorophenyl)amino)-2-oxoacetyl)-N-((S)-4-hydroxy-3-oxo-1-((S)-2-oxopyrrolidin-3-yl)butan-2-yl)-5-azaspiro[2.4]heptane-6-carboxamide]
EC50 [1]: 0.2 to 0.5 µM

CC(C)(C)C[C@H](NC(=O)C(=O)NC12CC(F)(C1)C2)C(=O)N[C@@H](C[C@@H]1CCCNC1=O)C(=O)CO [Compound 94, N^1-(3-fluorobicyclo[1.1.1]pentan-1-yl)-N^2-((S)-1-(((S)-4-hydroxy-3-oxo-1-((S)-2-oxopiperidin-3-yl)butan-2-yl)amino)-4,4-dimethyl-1-oxopentan-2-yl)oxalamide]
EC50 [1]: 0.05 to 0.2 µM

CC(C)(C)C[C@H](NC(=O)C(=O)Nc1cccc(OC(F)(F)F)c1)C(=O)N[C@@H](CC1CCCNC1=O)C(=O)CO (some centres unmarked) [Compound 95]
EC50 [1]: < 0.05 µM

CC(C)(C)C[C@H](NC(=O)C(=O)Nc1ccccc1C(F)(F)F)C(=O)N[C@@H](CC1CCCNC1=O)C(=O)CO (some centres unmarked) [Compound 96]
EC50 [1]: < 0.05 µM

CC1(C[C@H](NC(=O)C(=O)NC23CC(F)(C2)C3)C(=O)N[C@@H](C[C@@H]2CCNC2=O)C(=O)CO)CCC1 [Compound 97, N^1-(3-fluorobicyclo[1.1.1]pentan-1-yl)-N^2-((S)-1-(((S)-4-hydroxy-3-oxo-1-((S)-2-oxopyrrolidin-3-yl)butan-2-yl)amino)-3-(1-methylcyclobutyl)-1-oxopropan-2-yl)oxalamide]
EC50 [1]: 0.05 to 0.2 µM

CC(C)(C)C[C@H](NC(=O)C(=O)Nc1ccccc1OC(F)(F)F)C(=O)N[C@@H](CC1CCCNC1=O)C(=O)CO (some centres unmarked) [Compound 98]
EC50 [1]: < 0.05 µM

CC(C)(C)C[C@H](NC(=O)C(=O)Nc1cccc(C(F)(F)F)c1)C(=O)N[C@@H](CC1CCCNC1=O)C(=O)CO (some centres unmarked) [Compound 99]
EC50 [1]: < 0.05 µM

CC(C)(C)C[C@H](NC(=O)C(=O)Nc1ccccc1C(C)(C)C)C(=O)N[C@@H](C[C@@H]1CCCNC1=O)C(=O)CO [Compound 100, N^1-(2-(tert-butyl)phenyl)-N^2-((S)-1-(((S)-4-hydroxy-3-oxo-1-((S)-2-oxopiperidin-3-yl)butan-2-yl)amino)-4,4-dimethyl-1-oxopentan-2-yl)oxalamide]
EC50 [1]: < 0.05 µM

CC(C)(C)C[C@H](NC(=O)C(=O)Nc1ccc(OC(F)(F)F)cc1)C(=O)N[C@@H](C[C@@H]1CCCNC1=O)C(=O)CO [Compound 101, N^1-((S)-1-(((S)-4-hydroxy-3-oxo-1-((S)-2-oxopiperidin-3-yl)butan-2-yl)amino)-4,4-dimethyl-1-oxopentan-2-yl)-N^2-(4-(trifluoromethoxy)phenyl)oxalamide]
EC50 [1]: 0.05 to 0.2 µM

CC(C)(C)C[C@H](NC(=O)C(=O)Nc1cccc(Cl)c1)C(=O)N[C@@H](CC1CCCNC1=O)C(=O)CO (stereo partly drawn) [Compound 102, N^1-(3-chlorophenyl)-N^2-((S)-1-(((S)-4-hydroxy-3-oxo-1-((S)-2-oxopiperidin-3-yl)butan-2-yl)amino)-4,4-dimethyl-l-oxopentan-2-yl)oxalamide]
EC50 [1]: < 0.05 µM

CC(C)CC(=O)OCC(=O)[C@H](C[C@@H]1CCNC1=O)NC(=O)[C@H](CC(C)C)NC(=O)C(=O)Nc1ccccc1F [Compound 103, (S)-3-((S)-2-(2-((2-fluorophenyl)amino)-2-oxoacetamido)-4-methylpentanamido)-2-oxo-4-((S)-2-oxopyrrolidin-3-yl)butyl 3-methylbutanoate]
EC50 [1]: 0.05 to 0.2 µM

CC(C)CC(=O)OCC(=O)[C@H](C[C@@H]1CCCNC1=O)NC(=O)[C@H](CC(C)C)NC(=O)C(=O)Nc1ccccc1F [Compound 104, (S)-3-((S)-2-(2-((2-fluorophenyl)amino)-2-oxoacetamido)-4-methylpentanamido)-2-oxo-4-((S)-2-oxopiperidin-3-yl)butyl 3-methylbutanoate]
EC50 [1]: 0.05 to 0.2 µM

CC(=O)OCC(=O)[C@H](C[C@@H]1CCCNC1=O)NC(=O)[C@H](CC(C)C)NC(=O)C(=O)Nc1ccccc1F [Compound 105, (S)-3-((S)-2-(2-((2-fluorophenyl)amino)-2-oxoacetamido)-4-methylpentanamido)-2-oxo-4-((S)-2-oxopiperidin-3-yl)butyl acetate]
EC50 [1]: 0.05 to 0.2 µM

CC(=O)OCC(=O)[C@H](C[C@@H]1CCNC1=O)NC(=O)[C@H](CC(C)C)NC(=O)C(=O)Nc1ccccc1F [Compound 106, (S)-3-((S)-2-(2-((2-fluorophenyl)amino)-2-oxoacetamido)-4-methylpentanamido)-2-oxo-4-((S)-2-oxopyrrolidin-3-yl)butyl acetate]
EC50 [1]: 0.05 to 0.2 µM

CC(C)C[C@H](NC(=O)C(=O)Nc1ccccc1F)C(=O)N[C@@H](C[C@@H]1CCCNC1=O)C(=O)COC(=O)OC(C)C [Compound 107, (S)-3-((S)-2-(2-((2-fluorophenyl)amino)-2-oxoacetamido)-4-methylpentanamido)-2-oxo-4-((S)-2-oxopiperidin-3-yl)butyl isopropyl carbonate]
EC50 [1]: < 0.05 µM

CC(C)C[C@H](NC(=O)C(=O)Nc1ccccc1F)C(=O)N[C@@H](C[C@@H]1CCNC1=O)C(=O)COC(=O)OC(C)C [Compound 108, (S)-3-((S)-2-(2-((2-fluorophenyl)amino)-2-oxoacetamido)-4-methylpentanamido)-2-oxo-4-((S)-2-oxopyrrolidin-3-yl)butyl isopropyl carbonate]
EC50 [1]: 0.05 to 0.2 µM

O=C(N[C@@H](CC1CC1)C(=O)N[C@@H](C[C@@H]1CCCNC1=O)C(=O)CO)C(=O)NC12CCC(F)(CC1)CC2 [Compound 110, N^1-((S)-3-cyclopropyl-1-(((S)-4-hydroxy-3-oxo-1-((S)-2-oxopiperidin-3-yl)butan-2-yl)amino)-1-oxopropan-2-yl)-N^2-(4-fluorobicyclo[2.2.2]octan-1-yl)oxalamide]
EC50 [1]: > 1 µM

CC1(C[C@H](NC(=O)C(=O)NC23CC(F)(C2)C3)C(=O)N[C@@H](C[C@@H]2CCCNC2=O)C(=O)CO)CCC1 [Compound 111, N^1-(3-fluorobicyclo[1.1.1]pentan-1-yl)-N^2-((S)-1-(((S)-4-hydroxy-3-oxo-1-((S)-2-oxopiperidin-3-yl)butan-2-yl)amino)-3-(1-methylcyclobutyl)-1-oxopropan-2-yl)oxalamide]
EC50 [1]: 0.2 to 0.5 µM

CC(C)(C)C[C@H](NC(=O)C(=O)Nc1cccc(C(F)(F)F)n1)C(=O)N[C@@H](C[C@@H]1CCCNC1=O)C(=O)CO [Compound 112]
EC50 [1]: 0.5 to 1 µM

CC1(C[C@H](NC(=O)C(=O)NC(C)(C)C)C(=O)N[C@@H](C[C@@H]2CCCNC2=O)C(=O)CO)CCC1 [Compound 113, N^1-(tert-butyl)-N^2-((S)-1-(((S)-4-hydroxy-3-oxo-1-((S)-2-oxopiperidin-3-yl)butan-2-yl)amino)-3-(1-methylcyclobutyl)-1-oxopropan-2-yl)oxalamide]
EC50 [1]: 0.05 to 0.2 µM

CC(C)C[C@H](NC(=O)C(=O)NC(C)(C)C)C(=O)N[C@@H](C[C@@H]1CCCNC1=O)C(=O)CO [Compound 115, N^1-(tert-butyl)-N^2-((S)-1-(((S)-4-hydroxy-3-oxo-1-((S)-2-oxopiperidin-3-yl)butan-2-yl)amino)-4-methyl-1-oxopentan-2-yl)oxalamide]
EC50 [1]: > 1 µM

CC(C)CCC(=O)N1CC2(CC2)C[C@H]1C(=O)N[C@H](C#N)C[C@@H]1CCNC1=O [Compound 117, (S)-N-((S)-1-cyano-2-((S)-2-oxopyrrolidin-3-yl)ethyl)-5-(4-methylpentanoyl)-5-azaspiro[2.4]heptane-6-carboxamide]
EC50 [1]: > 1 µM

Source: patent US20230033285A1, “Protease Inhibitors for Treatment of Coronavirus Infections” (The Scripps Research Institute, priority 2021, published 2023)
